Laboratory results taken from patent US20250263426A1, “PDE4B INHIBITOR AND USE THEREOF” (Xizang Haisco Pharmaceutical Co., Ltd., priority 2022, published 2025).
pIC50: −log10 of the molar value. Where two headings read alike, the source gives them in different places.

What was measured:
PDE4B2 = PDE4B2 (Homo sapiens (Human), UniProt Q07343); assay: Effect of compounds on PDE4B2 activity (fluorescence polarization kit)
Excerpt: [formula] • I∥ (S535): fluorescence intensity in parallel direction • I⊥ (P535): fluorescence intensity in perpendicular direction • G: G factor=1

PDE4D2 = PDE4D2 (Homo sapiens (Human), UniProt Q08499); assay: Effect of compounds on PDE4D2 activity (fluorescence polarization kit); type: biochemical
Method: FP was usually represented by mP value.
[formula] • I∥ (S520): fluorescence intensity in parallel direction • I⊥ (P520): fluorescence intensity in perpendicular direction • G: G factor=1
[formula] • mP(sample): mP of the test compound in a reaction well • mP(negative control): mP in the negative control well • mP(positive control): mP in the positive control well
According to the calculated inhibition rate at each concentration, the IC50 value of each compound was calculated by GraphPad Prism 8 software.

[1] = test system: human peripheral blood mononuclear cells (TNF-α release); assay: Inhibition of LPS-induced TNF-α release from human peripheral blood mononuclear cells in vitro; type: cell-based; conditions: 4 h; for pIC50: read-out: Re IC50; for Emax: read-out: Max inhibition (%); for IC50: read-out: Re IC50 (nM)
Method: 5. Detection of Inhibitory Activity of Compounds on the Release of Tumor Necrosis Factor-α (TNF-α) from Human Peripheral Blood Mononuclear Cells Induced by Lipopolysaccharide (LPS) In Vitro
The concentration of hPBMC cells was adjusted to 0.25×10^6 cells/mL with RPMI1640 medium and inoculated into a 96-well plate in an amount of 50000 cells per well. […] Incubation was carried out for 4 h in an incubator at 37° C. and 5% CO2. The cell supernatant was collected, and the content of TNF-α in the supernatant sample was detected by human TNF-α Elisa quantitative test kit (Sino Biological, Cat #KIT10602). The IC50 value was calculated using GraphPad Prism software.

[2] = Homo sapiens, PBMC, hPBMC, 100 ng/mL LPS
[3] = relative IC50, hPBMC, 100 ng/mL LPS

Sequence of PDE4B2 (Q07343 other isoform, or with tags, fused parts or gaps): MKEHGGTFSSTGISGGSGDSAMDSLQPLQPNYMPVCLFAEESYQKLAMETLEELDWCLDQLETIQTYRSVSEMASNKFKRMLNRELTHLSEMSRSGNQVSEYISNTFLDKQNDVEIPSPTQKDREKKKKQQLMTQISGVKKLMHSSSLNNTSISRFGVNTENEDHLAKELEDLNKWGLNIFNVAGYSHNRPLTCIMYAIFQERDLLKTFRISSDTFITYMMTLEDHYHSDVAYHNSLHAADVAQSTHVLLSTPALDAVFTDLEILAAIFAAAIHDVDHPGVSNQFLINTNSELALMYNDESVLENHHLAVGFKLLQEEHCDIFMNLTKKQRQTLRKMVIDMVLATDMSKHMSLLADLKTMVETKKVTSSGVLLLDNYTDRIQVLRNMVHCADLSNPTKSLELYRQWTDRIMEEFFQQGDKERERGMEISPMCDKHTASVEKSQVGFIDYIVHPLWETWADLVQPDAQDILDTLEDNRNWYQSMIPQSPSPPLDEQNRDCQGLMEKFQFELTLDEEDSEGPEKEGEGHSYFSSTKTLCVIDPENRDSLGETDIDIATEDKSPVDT
Sequence of PDE4D2 (Q08499 303-809, change not shown): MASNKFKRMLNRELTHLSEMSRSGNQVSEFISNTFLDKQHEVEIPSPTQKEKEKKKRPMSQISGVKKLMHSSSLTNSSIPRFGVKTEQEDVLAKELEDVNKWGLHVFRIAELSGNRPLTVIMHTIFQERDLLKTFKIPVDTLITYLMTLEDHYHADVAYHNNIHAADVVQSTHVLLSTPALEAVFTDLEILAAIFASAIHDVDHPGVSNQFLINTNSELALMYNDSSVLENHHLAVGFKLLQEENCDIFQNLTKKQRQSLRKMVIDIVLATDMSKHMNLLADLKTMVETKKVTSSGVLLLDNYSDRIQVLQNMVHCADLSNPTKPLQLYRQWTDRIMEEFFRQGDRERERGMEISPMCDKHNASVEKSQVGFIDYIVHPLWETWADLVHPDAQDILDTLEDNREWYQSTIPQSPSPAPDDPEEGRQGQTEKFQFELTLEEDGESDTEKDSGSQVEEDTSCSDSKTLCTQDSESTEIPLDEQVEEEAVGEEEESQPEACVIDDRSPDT

Compound	pIC50 (PDE4B2)	pIC50 (PDE4D2)	pIC50 ([1]; Homo sapiens, PBMC)	Emax [1, 2]	pIC50 (PDE4B2; read-out: PDE4B2 IC50)	Max inhibition (%) ([1]; hPBMC, 100 ng/mL LPS)	pIC50 [1, 3]	Emax ([1]; Homo sapiens, PBMC)	IC50 ([1]; Homo sapiens, PBMC)
C#Cc1cnc(C2=CCN(c3nc4c(c(NC5(COC(N)=O)CCC5)n3)[S@+]([O-])CC4)CC2)nc1 [Compound 35]	> 8.00	> 8.00	> 8.00	85.1%	–	–	–	–	–
C#Cc1cnc(C2=CCN(c3nc4c(c(Nc5cccc(F)c5)n3)[S@+]([O-])CC4)CC2)nc1 [Compound 36-1]	–	> 8.00	–	–	> 8.00	73.52%	> 8.00	–	–
C#Cc1cnc(C2=CCN(c3nc4c(c(NC5(CN/C(C)=N/C#N)CCC5)n3)[S@+]([O-])CC4)CC2)nc1 [Compound 39]	> 8.00	> 8.00	> 8.00	71.1%	–	–	–	–	–
C#Cc1ccc(N2CCN(c3nc4c(c(NC5(CO)CCC5)n3)[S+]([O-])CCC4)CC2)cc1 (centres unmarked) [Compound 41]	> 8.00	7.30 to 8.00	–	–	–	–	–	69.8%	10 to 50 nM
NC(=O)OCC1(Nc2nc(N3C[C@H]4CC(c5ccc(Cl)cc5)=C[C@H]4C3)nc3c2[S@+]([O-])CC3)CCC1 [Compound 44]	–	7.30 to 8.00	–	–	> 8.00	77.27%	7.30 to 8.00	–	–
NC(=O)OCC1(Nc2nc(N3CC=C(c4ncc(Cl)cn4)CC3)nc3c2[S@+]([O-])CC3)CCC1 [Compound 48]	> 8.00	> 8.00	7.30 to 8.00	73.9%	–	–	–	–	–
NC(=O)OCC1(Nc2nc(N3CC=C(c4nc5ccccc5o4)CC3)nc3c2[S@+]([O-])CC3)CCC1 [Compound 49]	–	> 8.00	–	–	> 8.00	73.46%	> 8.00	–	–
Cc1coc(C2=CCN(c3nc4c(c(NC5(COC(N)=O)CCC5)n3)[S@+]([O-])CC4)CC2)n1 [Compound 50]	> 8.00	> 8.00	> 8.00	72.1%	–	–	–	–	–
NC(=O)OCC1(Nc2nc(N3CC=C(c4ncc(Cl)cn4)CC3)nc3c2[S@+]([O-])CC3)CCCC1 [Compound 52]	> 8.00	> 8.00	7.30 to 8.00	–	–	–	–	–	–
NC(=O)OCC1(Nc2nc(N3CC=C(c4nc5ccccc5s4)CC3)nc3c2[S@+]([O-])CC3)CCC1 [Compound 56]	> 8.00	> 8.00	> 8.00	–	–	–	–	–	–
C#Cc1cnc(C2=CCN(c3nc4c(c(NC5(COC(F)F)CCC5)n3)[S+]([O-])CC4)CC2)nc1 (centres unmarked) [Compound 63]	> 8.00	> 8.00	7.30 to 8.00	72.7%	–	–	–	–	–
C#Cc1cnc(C2=CCN(c3nc4c(c(NC5(COC)CCC5)n3)[S@+]([O-])CC4)CC2)nc1 [Compound 64]	> 8.00	> 8.00	7.30 to 8.00	79.9%	–	–	–	–	–
C#Cc1cnc(C2=CCN(c3nc4c(c(NC5(C(C)O)CCC5)n3)[S@+]([O-])CC4)CC2)nc1 (some centres unmarked) [Compound 66]	> 8.00	> 8.00	–	–	–	–	–	67.1%	10 to 50 nM
C#Cc1ccc(C2=CCN(c3nc4c(c(NC5(CNC(=O)OC)CCC5)n3)[S@+]([O-])CC4)CC2)nc1 [Compound 69]	> 8.00	> 8.00	> 8.00	70.9%	–	–	–	–	–
COC(=O)NCC1(Nc2nc(N3CC=C(c4ncc(Cl)cn4)CC3)nc3c2[S@+]([O-])CC3)CCC1 [Compound 70]	> 8.00	> 8.00	> 8.00	55.4%	–	–	–	–	–
[O-][S+]1CCc2nc(N3CCN4c5ccccc5OC[C@H]4C3)nc(NC3(CO)COC3)c21 (some centres unmarked) [Compound 72-3]	–	7.30 to 8.00	–	–	> 8.00	65.66%	> 8.00	–	–
[O-][S+]1CCc2nc(N3CCN4c5ccccc5OC[C@@H]4C3)nc(NC3(CO)COC3)c21 (some centres unmarked) [Compound 72-4]	–	> 8.00	–	–	> 8.00	62.45%	> 8.00	–	–
COC(=O)NCC1(Nc2nc(N3C[C@@H]4CC(c5ncc(Cl)cn5)=C[C@@H]4C3)nc3c2[S@+]([O-])CC3)CCC1 [Compound 73-1]	> 8.00	> 8.00	> 8.00	67.5%	–	–	–	–	–
COC(=O)NCC1(Nc2nc(N3C[C@H]4CC(c5ncc(Cl)cn5)=C[C@H]4C3)nc3c2[S@+]([O-])CC3)CCC1 [Compound 73-2]	> 8.00	7.30 to 8.00	> 8.00	67.9%	–	–	–	–	–
[O-][S@+]1CCc2nc(N3CC4CN(c5ccc6c(c5)CC6)CC4C3)nc(Nc3cccc(F)c3)c21 (some centres unmarked) [Compound 76-1]	–	7.30 to 8.00	–	–	> 8.00	74.65%	7.30 to 8.00	–	–

Compound	pIC50 (PDE4B2)	pIC50 (PDE4D2)	pIC50 ([1]; Homo sapiens, PBMC)	Emax [1, 2]	pIC50 (PDE4B2; read-out: PDE4B2 IC50)	Max inhibition (%) ([1]; hPBMC, 100 ng/mL LPS)	pIC50 [1, 3]	Emax ([1]; Homo sapiens, PBMC)	IC50 ([1]; Homo sapiens, PBMC)
NCC1(Nc2nc(N3CC=C(c4nc5ccccc5s4)CC3)nc3c2[S@+]([O-])CC3)CCC1 [Compound 78]	7.30 to 8.00	7.30 to 8.00	7.30 to 8.00	77.4%	–	–	–	–	–
COC(=O)NCC1(Nc2nc(N3CC=C(c4nc5ccccc5s4)CC3)nc3c2[S@+]([O-])CC3)CCC1 [Compound 79]	> 8.00	> 8.00	7.30 to 8.00	65.5%	–	–	–	–	–
[O-][S@+]1CCc2nc(N3CC=C(c4ncc(Cl)cn4)CC3)nc(Nc3ccnc(F)c3)c21 [Compound 85-1]	–	> 8.00	–	–	> 8.00	71.38%	> 8.00	–	–
COC(=O)NCC(C)(C)Nc1nc(N2CC=C(c3ncc(Cl)cn3)CC2)nc2c1[S@+]([O-])CC2 [Compound 88]	–	> 8.00	–	–	> 8.00	74.9%	> 8.00	–	–
CNC(=O)OCC1(Nc2nc(N3CC=C(c4ncc(C5CC5)cn4)CC3)nc3c2[S@+]([O-])CC3)CCC1 [Compound 90]	7.30 to 8.00	7.30 to 8.00	7.30 to 8.00	69.5%	–	–	–	–	–
C#Cc1ccc(C2=CCN(c3nc4c(c(NC5([C@H](C)O)CCC5)n3)[S@+]([O-])CC4)CC2)nc1 [Compound 95-2]	–	> 8.00	–	–	> 8.00	70.67%	> 8.00	–	–
C#Cc1ccc(C2=CCN(c3nc4c(c(NC5([C@@H](C)O)CCC5)n3)[S@@+]([O-])CC4)CC2)nc1 [Compound 95-3]	–	> 8.00	–	–	> 8.00	81.97%	> 8.00	–	–
C#Cc1cnc(C2=CCN(c3nc4c(c(NC5([C@@H](C)O)CCC5)n3)[S@+]([O-])CC4)CC2)nc1 [Compound 96-1]	–	7.30 to 8.00	–	–	> 8.00	72.83%	> 8.00	–	–
C#Cc1cnc(C2=CCN(c3nc4c(c(NC5([C@H](C)O)CCC5)n3)[S@+]([O-])CC4)CC2)nc1 [Compound 96-2]	–	> 8.00	–	–	> 8.00	81.63%	> 8.00	–	–
C#Cc1cnc(C2=CCN(c3nc4c(c(NC5([C@H](C)O)CCC5)n3)[S@@+]([O-])CC4)CC2)nc1 [Compound 96-4]	–	7.30 to 8.00	–	–	7.30 to 8.00	70.23%	7.30 to 8.00	–	–
CC#Cc1ccc(C2=CCN(c3nc4c(c(NC5(COC(N)=O)CCC5)n3)[S@+]([O-])CC4)CC2)nc1 [Compound 98]	> 8.00	> 8.00	> 8.00	72.7%	–	–	–	–	–
CC#Cc1ccc(C2=CCN(c3nc4c(c(NC5(CNC(=O)OC)CCC5)n3)[S@+]([O-])CC4)CC2)nc1 [Compound 100]	> 8.00	> 8.00	> 8.00	79.2%	–	–	–	–	–
CC#Cc1ccc(C2=CCN(c3nc4c(c(NC(C)(C)COC(N)=O)n3)[S@+]([O-])CC4)CC2)nc1 [Compound 101]	> 8.00	> 8.00	> 8.00	80%	–	–	–	–	–
CNC(=O)OCC(C)(C)Nc1nc(N2CC=C(c3ncc(Cl)cn3)CC2)nc2c1[S@+]([O-])CC2 [Compound 104]	7.30 to 8.00	7.30 to 8.00	7.30 to 8.00	78.8%	–	–	–	–	–
Cc1cnc2c(c1)OC[C@@H]1CN(c3nc4c(c(NC(C)(C)COC(N)=O)n3)[S@+]([O-])CC4)CCN21 [Compound 142-1]	–	7.30 to 8.00	–	–	> 8.00	–	–	–	–
Cc1cnc2c(c1)OC[C@H]1CN(c3nc4c(c(NC(C)(C)COC(N)=O)n3)[S@+]([O-])CC4)CCN21 [Compound 142-2]	–	7.30 to 8.00	–	–	7.30 to 8.00	–	–	–	–
CCOc1cnc2c(c1)OC[C@@H]1CN(c3nc4c(c(NC(C)(C)COC(N)=O)n3)[S+]([O-])CC4)CCN21 (some centres unmarked) [Compound 146-1]	–	> 8.00	–	–	7.30 to 8.00	–	–	–	–
CCOc1cnc2c(c1)OC[C@H]1CN(c3nc4c(c(NC(C)(C)COC(N)=O)n3)[S+]([O-])CC4)CCN21 (some centres unmarked) [Compound 146-2]	–	7.30 to 8.00	–	–	7.30 to 8.00	–	–	–	–
CCOc1cnc2c(c1)OC[C@@H]1CN(c3nc4c(c(NC(C)(C)CNC(=O)OC)n3)[S@+]([O-])CC4)CCN21 [Compound 147-1]	–	7.00 to 7.30	–	–	7.30 to 8.00	–	–	–	–
CCOc1cnc2c(c1)OC[C@H]1CN(c3nc4c(c(NC(C)(C)CNC(=O)OC)n3)[S@+]([O-])CC4)CCN21 [Compound 147-2]	–	7.00 to 7.30	–	–	7.30 to 8.00	–	–	–	–
